Drawing on the Kinase Knowledgebase extract (Sharma et al. 2016), this text covers IC50 for 81 compounds.

For this assay, the target named is PIK3CG (human) (UniProt P48736). In words: Inhibition of PIK3CG Kinase Activity.

Molecules are shown by their SMILES. Where only a bound is given, the exact number is not on record here.

PIK3CG (human), sequence (P48736 whole entry, looked up): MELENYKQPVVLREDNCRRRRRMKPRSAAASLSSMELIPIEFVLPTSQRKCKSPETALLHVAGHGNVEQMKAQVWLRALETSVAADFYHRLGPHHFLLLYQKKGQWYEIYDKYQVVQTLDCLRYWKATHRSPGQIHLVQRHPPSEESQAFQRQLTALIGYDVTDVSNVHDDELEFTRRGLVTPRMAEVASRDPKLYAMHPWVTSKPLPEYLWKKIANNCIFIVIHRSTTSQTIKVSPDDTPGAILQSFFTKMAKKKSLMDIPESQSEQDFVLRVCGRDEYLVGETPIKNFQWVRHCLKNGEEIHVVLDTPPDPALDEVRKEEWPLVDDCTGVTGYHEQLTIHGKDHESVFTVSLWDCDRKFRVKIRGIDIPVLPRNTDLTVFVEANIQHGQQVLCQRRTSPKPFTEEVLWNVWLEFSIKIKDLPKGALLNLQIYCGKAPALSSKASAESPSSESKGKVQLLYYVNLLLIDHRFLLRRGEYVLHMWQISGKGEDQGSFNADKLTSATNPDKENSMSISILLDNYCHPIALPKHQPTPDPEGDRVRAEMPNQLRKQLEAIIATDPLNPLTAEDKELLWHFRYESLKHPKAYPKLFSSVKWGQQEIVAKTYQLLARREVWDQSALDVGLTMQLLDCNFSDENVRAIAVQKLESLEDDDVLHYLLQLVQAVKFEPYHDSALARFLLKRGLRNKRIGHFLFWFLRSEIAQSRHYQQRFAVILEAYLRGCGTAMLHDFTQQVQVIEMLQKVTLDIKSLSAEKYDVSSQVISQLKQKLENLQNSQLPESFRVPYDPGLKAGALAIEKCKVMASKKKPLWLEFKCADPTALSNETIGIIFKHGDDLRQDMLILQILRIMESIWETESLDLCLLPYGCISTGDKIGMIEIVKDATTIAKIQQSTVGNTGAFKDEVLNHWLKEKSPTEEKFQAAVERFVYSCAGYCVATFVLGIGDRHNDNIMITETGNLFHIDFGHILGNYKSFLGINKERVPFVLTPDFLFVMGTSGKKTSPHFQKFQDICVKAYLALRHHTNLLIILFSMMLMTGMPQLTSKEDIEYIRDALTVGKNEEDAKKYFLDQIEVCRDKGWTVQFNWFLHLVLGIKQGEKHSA

Regarding `O=C(NCCn1nc(C(F)(F)F)cc1-c1ccco1)Nc1nc2c(s1)-c1c(cnn1-c1ccccc1C(F)(F)F)C2`, the IC50 (usually the concentration needed to halve the response being measured) is below 800 nM.

On to `CC(C)(C)c1cc(CNC(=O)Nc2nc3c(s2)-c2c(cnn2-c2ccccc2C(F)(F)F)C3)[nH]n1`, for which the 50% inhibitory concentration (IC50) is below 800 nM.

`CNC(=O)Nc1nc2c(s1)-c1c(cnn1-c1ccccc1C(F)(F)F)C2`: the IC50 was below 800 nM. `CC(C)CCNC(=O)Nc1nc2c(s1)-c1c(cnn1-c1ccccc1Cl)C2` yielded a 50% inhibitory concentration (IC50) below 800 nM.

`CC(C)(C)OC(=O)N[C@H]1CC[C@H](CNC(=O)Nc2nc3c(s2)-c2c(cnn2-c2ccccc2Cl)C3)CC1` returned a concentration for half-maximal inhibition (IC50) below 800 nM. As for `O=C(NCc1ccccc1N1CCCCC1)Nc1nc2c(s1)-c1c(cnn1-c1ccccc1Cl)C2`, the figure is below 800 nM.

`CCCNC(=O)Nc1nc2c(s1)-c1c(cnn1-c1ccccc1Cl)C2` came in with an IC50 below 800 nM. As for `Nc1cc(CNC(=O)Nc2nc3c(s2)-c2c(cnn2-c2ccccc2C(F)(F)F)C3)[nH]n1`, the figure is below 800 nM; as for `CCCCn1nc(CCNC(=O)Nc2nc3c(s2)-c2c(cnn2-c2ccccc2C(F)(F)F)C3)cc1N`, below 800 nM.

Consider `CCn1cc(CNC(=O)Nc2nc3c(s2)-c2c(cnn2-c2ccccc2C(F)(F)F)C3)cn1`, for which the IC50 is below 800 nM. The compound `CCCCNC(=O)Nc1nc2c(s1)-c1c(cnn1-c1ccccc1Cl)C2` had an IC50 below 800 nM. As for `O=C(NCCN1CCOCC1)Nc1nc2c(s1)-c1c(cnn1-c1ccccc1Br)C2`, the figure is below 800 nM; as for `CC(C)(C)OC(=O)N1CCC[C@H]1CNC(=O)Nc1nc2c(s1)-c1c(cnn1-c1ccccc1Cl)C2`, below 800 nM. As for `CN(C(=O)OC(C)(C)C)C1CCN(C(=O)Nc2nc3c(s2)-c2c(cnn2-c2ccccc2Cl)C3)C1` (stereo unspecified), the figure is below 800 nM. As for `O=C(Nc1nc2c(s1)-c1c(cnn1-c1ccccc1Cl)C2)N1CCC(n2cnc3ccccc32)CC1`, the figure is below 800 nM. Turning to `O=C1CCC(NC(=O)Nc2nc3c(s2)-c2c(cnn2-c2ccccc2Cl)C3)C(c2ccccc2)N1` (stereo unspecified), the IC50 is below 800 nM. As for `Cn1cccc1CCNC(=O)Nc1nc2c(s1)-c1c(cnn1-c1ccccc1Cl)C2`, the figure is below 800 nM. As for `O=C(NCc1nccs1)Nc1nc2c(s1)-c1c(cnn1-c1ccccc1C(F)(F)F)C2`, the figure is below 800 nM. On to `CCn1cnc(CCNC(=O)Nc2nc3c(s2)-c2c(cnn2-c2cc(F)ccc2C(F)(F)F)C3)c1`, for which the half-inhibitory concentration (IC50) is below 800 nM. As for `CC(NC(=O)Nc1nc2c(s1)-c1c(cnn1-c1ccccc1Cl)C2)c1cccc(NC(=O)OC(C)(C)C)c1` (stereo unspecified), the figure is below 800 nM; as for `Cn1cc(CNC(=O)Nc2nc3c(s2)-c2c(cnn2-c2ccccc2Cl)C3)cn1`, below 800 nM; as for `CC(C)(C)OC(=O)N1CCCC(CNC(=O)Nc2nc3c(s2)-c2c(cnn2-c2ccccc2Cl)C3)C1` (stereo unspecified), below 800 nM. Regarding `CCN1CCC[C@@H]1CNC(=O)Nc1nc2c(s1)-c1c(cnn1-c1ccccc1Cl)C2`, the IC50 was below 800 nM. As for `CC1CC(c2ccc(O)cc2)CN1C(=O)Nc1nc2c(s1)-c1c(cnn1-c1ccccc1Cl)C2` (stereo unspecified), the figure is below 800 nM. `Nc1cc(CCNC(=O)Nc2nc3c(s2)-c2c(cnn2-c2ccccc2C(F)(F)F)C3)nn1C1CCCC1` gave an IC50 below 800 nM. As for `O=C(C[C@H]1CCCN1C(=O)OCc1ccccc1)Nc1nc2c(s1)-c1c(cnn1-c1ccccc1Cl)C2`, the figure is below 800 nM; as for `CN(Cc1cccs1)C(=O)Nc1nc2c(s1)-c1c(cnn1-c1ccccc1C(F)(F)F)C2`, below 800 nM.

Compound `O=C(NCc1ccco1)Nc1nc2c(s1)-c1c(cnn1-c1ccccc1C(F)(F)F)C2` displayed an IC50 below 800 nM. As for `O=C(NCc1nnc(-c2ccccc2)o1)Nc1nc2c(s1)-c1c(cnn1-c1ccccc1C(F)(F)F)C2`, the figure is below 800 nM; as for `CCCCNC(=O)Nc1nc2c(s1)-c1c(cnn1-c1ccccc1C(F)(F)F)C2`, below 800 nM.

Compound `NC(=O)Nc1nc2c(s1)-c1c(cnn1-c1ccccc1Br)C2` registered a half-maximal inhibitory concentration (IC50) below 800 nM. Take `CCc1cnc(CCNC(=O)Nc2nc3c(s2)-c2c(cnn2-c2ccccc2C(F)(F)F)C3)o1`: the IC50 was below 800 nM. In turn, `CCCNC(=O)Nc1nc2c(s1)-c1c(cnn1-c1ccccc1C(F)(F)F)C2` yielded a half-maximal inhibitory concentration (IC50) below 800 nM. For the compound `CCN1CCC[C@H]1CNC(=O)Nc1nc2c(s1)-c1c(cnn1-c1ccccc1Cl)C2`, the IC50 was below 800 nM.

Consider `CCCNC(=O)Nc1nc2c(s1)-c1c(cnn1-c1cc(F)ccc1C(F)(F)F)C2`, for which the IC50 was below 800 nM. Compound `CC(C)(CNc1ccc(C(C)(C)C)cc1)NC(=O)Nc1nc2c(s1)-c1c(cnn1-c1ccccc1Cl)C2` displayed an IC50 below 800 nM.

Compound `N#CCCn1nc(CCNC(=O)Nc2nc3c(s2)-c2c(cnn2-c2ccccc2C(F)(F)F)C3)cc1N` returned an IC50 below 800 nM.

Turning to `Cc1onc(-c2ccccc2)c1CNC(=O)Nc1nc2c(s1)-c1c(cnn1-c1ccccc1C(F)(F)F)C2`, the IC50 is below 800 nM.

In the case of `CCCNC(=O)Nc1nc2c(s1)-c1c(cnn1-c1cc(Cl)ccc1Cl)C2`, the IC50 is below 800 nM. As for `Cc1cc(-c2cccnc2)nn1CCNC(=O)Nc1nc2c(s1)-c1c(cnn1-c1ccccc1C(F)(F)F)C2`, the figure is below 800 nM; as for `CCCn1cnc(CCNC(=O)Nc2nc3c(s2)-c2c(cnn2-c2ccccc2C(F)(F)F)C3)c1`, below 800 nM. As for `O=C(NCc1ccncc1)Nc1nc2c(s1)-c1c(cnn1-c1ccccc1C(F)(F)F)C2`, the figure is below 800 nM; as for `O=C(NCC1CCCN(c2ncccn2)C1)Nc1nc2c(s1)-c1c(cnn1-c1ccccc1Cl)C2` (stereo unspecified), below 800 nM. As for `O=C(NCC1CC1)Nc1nc2c(s1)-c1c(cnn1-c1cccc(F)c1C(F)(F)F)C2`, the figure is below 800 nM; as for `NC(=O)c1cccc(CNC(=O)Nc2nc3c(s2)-c2c(cnn2-c2ccccc2C(F)(F)F)C3)c1`, below 800 nM; as for `CC(C)(C)OC(=O)CCNC(=O)Nc1nc2c(s1)-c1c(cnn1-c1ccccc1C(F)(F)F)C2`, below 800 nM. As to `Nc1cc(CNC(=O)Nc2nc3c(s2)-c2c(cnn2-c2ccccc2C(F)(F)F)C3)nn1C1CCCC1`, the IC50 is below 800 nM. As for `CNC(=O)c1ccc(-n2ncc3c2-c2sc(NC(=O)NCc4cc(C5CC5)n[nH]4)nc2C3)c(C(F)(F)F)c1`, the figure is below 800 nM; as for `NC(=O)Nc1nc2c(s1)-c1c(cnn1-c1cc(Cl)ccc1Cl)C2`, below 800 nM; as for `CCCCNC(=O)Nc1nc2c(s1)-c1c(cnn1-c1cccc(F)c1C(F)(F)F)C2`, below 800 nM. Compound `Cc1cc(-c2ccccc2)n(CCNC(=O)Nc2nc3c(s2)-c2c(cnn2-c2ccccc2C(F)(F)F)C3)n1` displayed a half-maximal inhibitory concentration (IC50) below 800 nM. On to `CCn1cnc(CCNC(=O)Nc2nc3c(s2)-c2c(cnn2-c2ccccc2Cl)C3)c1`, for which the 50% inhibitory concentration (IC50) is below 800 nM. As for `O=C(NCc1ccoc1)Nc1nc2c(s1)-c1c(cnn1-c1ccccc1C(F)(F)F)C2`, the figure is below 800 nM.

In turn, `O=C(Nc1nc2c(s1)-c1c(cnn1-c1ccccc1Cl)C2)N1CCCCC1c1nc2ccccc2[nH]1` (stereo unspecified) gave a half-maximal inhibitory concentration (IC50) below 800 nM. `O=C(NCc1cccnc1)Nc1nc2c(s1)-c1c(cnn1-c1ccccc1C(F)(F)F)C2` showed an IC50 below 800 nM. Consider `O=C(NCc1cocn1)Nc1nc2c(s1)-c1c(cnn1-c1ccccc1C(F)(F)F)C2`, for which the half-inhibitory concentration (IC50) was below 800 nM. As for `CCNC(=O)Nc1nc2c(s1)-c1c(cnn1-c1cccc(F)c1C(F)(F)F)C2`, the figure is below 800 nM; as for `O=C(NCCc1cccnc1)Nc1nc2c(s1)-c1c(cnn1-c1ccccc1Cl)C2`, below 800 nM. The compound `O=C(NCc1ccccc1)Nc1nc2c(s1)-c1c(cnn1-c1ccccc1C(F)(F)F)C2` registered an IC50 below 800 nM. As for `O=C(NCCc1nc(C2CC2)no1)Nc1nc2c(s1)-c1c(cnn1-c1ccccc1C(F)(F)F)C2`, the figure is below 800 nM; as for `O=C(NCc1ccc(CN2CCNC2=O)cc1)Nc1nc2c(s1)-c1c(cnn1-c1ccccc1Cl)C2`, below 800 nM. As for `Cc1cc(CNC(=O)Nc2nc3c(s2)-c2c(cnn2-c2ccccc2C(F)(F)F)C3)nn1C`, the figure is below 800 nM; as for `CCn1nc(CNC(=O)Nc2nc3c(s2)-c2c(cnn2-c2ccccc2C(F)(F)F)C3)cc1N`, below 800 nM; as for `CCOC(=O)Cn1nc(CCNC(=O)Nc2nc3c(s2)-c2c(cnn2-c2ccccc2C(F)(F)F)C3)cc1N`, below 800 nM. As for `Cc1cc(-c2cccnc2)n(CCNC(=O)Nc2nc3c(s2)-c2c(cnn2-c2ccccc2C(F)(F)F)C3)n1`, the figure is below 800 nM; as for `O=C(NCc1ccsc1)Nc1nc2c(s1)-c1c(cnn1-c1ccccc1C(F)(F)F)C2`, below 800 nM; as for `CCCNC(=O)Nc1nc2c(s1)-c1c(cnn1-c1ccccc1Br)C2`, below 800 nM. On to `CC(C)(C)OC(=O)N1CCC[C@H]1CNC(=O)Nc1nc2c(s1)-c1c(cnn1-c1ccccc1C(F)(F)F)C2`, for which the IC50 is below 800 nM. On to `CC(C)(C)OC(=O)NCc1cccc(CNC(=O)Nc2nc3c(s2)-c2c(cnn2-c2ccccc2Cl)C3)c1`, for which the IC50 is below 800 nM.

Turning to `Nc1cc(CNC(=O)Nc2nc3c(s2)-c2c(cnn2-c2ccccc2C(F)(F)F)C3)nn1-c1ccccc1`, the half-inhibitory concentration (IC50) is below 800 nM. As for `CCn1ccc(CNC(=O)Nc2nc3c(s2)-c2c(cnn2-c2ccccc2C(F)(F)F)C3)n1`, the figure is below 800 nM; as for `O=C(NCCc1cn[nH]c1)Nc1nc2c(s1)-c1c(cnn1-c1ccccc1C(F)(F)F)C2`, below 800 nM; as for `CC(C)(C)CNC(=O)Nc1nc2c(s1)-c1c(cnn1-c1ccccc1Cl)C2`, below 800 nM.

For `CC(C)c1cnc(CCNC(=O)Nc2nc3c(s2)-c2c(cnn2-c2ccccc2C(F)(F)F)C3)o1`, the IC50 was below 800 nM. As for `CC(=O)NCC1CCCN(C(=O)Nc2nc3c(s2)-c2c(cnn2-c2ccccc2Cl)C3)C1` (stereo unspecified), the figure is below 800 nM; as for `Cc1ccc(CN2CC(NC(=O)Nc3nc4c(s3)-c3c(cnn3-c3ccccc3Cl)C4)CC2=O)cc1` (stereo unspecified), below 800 nM; as for `CC(C)c1cnc(CCNC(=O)Nc2nc3c(s2)-c2c(cnn2-c2ccccc2Cl)C3)o1`, below 800 nM. As for `O=C(NCC1CCC(N2CCNC2=O)CC1)Nc1nc2c(s1)-c1c(cnn1-c1ccccc1Cl)C2` (stereo unspecified), the figure is below 800 nM; as for `CCc1csc(CCNC(=O)Nc2nc3c(s2)-c2c(cnn2-c2ccccc2C(F)(F)F)C3)n1`, below 800 nM. In turn, `Nc1cc(CCNC(=O)Nc2nc3c(s2)-c2c(cnn2-c2ccccc2C(F)(F)F)C3)nn1C1CCN(Cc2ccccc2)CC1` registered an IC50 below 800 nM. The compound `Cn1nc(CCNC(=O)Nc2nc3c(s2)-c2c(cnn2-c2ccccc2C(F)(F)F)C3)cc1N` gave an IC50 below 800 nM.
